{
  "source": "patent US20260285850A1",
  "about": "“SUBSTITUTED OXAZOLIDINONES AND IMIDAZOLINONES AS HERBICIDES” (FMC CORPORATION, priority 2023, published 2026)",
  "assay_type_in_all_cases": "in vivo",
  "key": {"[1]": {"tested_on": "ducksalad (Heteranthera limosa)", "experiment": "Test B flooded paddy test, visual plant response rating 0-100", "conditions": "250 g ai/ha, Flood, applied to paddy water, evaluated after 13 days", "summary_of_the_method": "(§1)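 Plants were grown to the 2-leaf stage, then pots were flooded to 3 cm above the soil and compound was applied directly to the paddy water, with that depth kept throughout.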"}, "[2]": {"tested_on": "sedge, umbrella (small-flower umbrella sedge, Cyperus difformis)", "experiment": "Test B flooded paddy test, visual plant response rating 0-100", "conditions": "250 g ai/ha, Flood, applied to paddy water, evaluated after 13 days", "summary_of_the_method": "as §1"}, "rice (Oryza sativa)": {"tested_on": "rice (Oryza sativa)", "experiment": "Test B flooded paddy test, visual plant response rating 0-100", "conditions": "250 g ai/ha, Flood, applied to paddy water, evaluated after 13 days", "summary_of_the_method": "as §1"}, "[3]": {"tested_on": "barnyardgrass (Echinochloa crusgalli)", "experiment": "Test B flooded paddy test, visual plant response rating 0-100", "conditions": "250 g ai/ha, Flood, applied to paddy water, evaluated after 13 days", "summary_of_the_method": "as §1"}, "[4]": {"tested_on": "horseweed (Erigeron canadensis)", "experiment": "Test A postemergence application, visual injury rating 0-100", "conditions": "62 g ai/ha, postemergence, 10 days, 0 = no effect, 100 = complete control", "description": "(§2) Seeds of plant species selected from barnyardgrass (Echinochloa crus-galli), blackgrass (Alopecurus myosuroides), corn (Zea mays), foxtail, giant (giant foxtail, Setaria faberi), green foxtail (Setaria viridis), goosegrass (Eleusine indica), kochia (Bassia scoparia), oat, wild (wild oat, Avena fatua), palmer (palmer amaranth, palmer pigweed, Amaranthus palmeri), ragweed (common ragweed, Ambrosia artemisiifolia), ryegrass, Italian (italian ryegrass, Lolium multiflorum), soybean (Glycine max) and wheat (Triticum aestivum) were planted into a blend of loam soil and sand and treated preemergence with a directed soil spray using test chemicals formulated in a non-phytotoxic solvent mixture which included a surfactant.\n(§3) At the same time, plants selected from these crops and weed species and also galium (catchweed bedstraw, Galium aparine) and horseweed (Erigeron canadensis) were planted in pots containing the same blend of loam soil and sand and treated with postemergence applications of test chemicals formulated in the same manner. Plants ranged in height from 2 to 10 cm and were in the one- to two-leaf stage for the postemergence treatment. Treated plants and untreated controls were maintained in a greenhouse for 10 days, after which time all treated plants were compared to untreated controls and visually evaluated for injury. Plant response ratings, summarized in Table A, are based on a 0 to 100 scale where 0 is no effect and 100 is complete control. A dash (-) response means no test result."}, "[5]": {"tested_on": "oat, wild (wild oat, Avena fatua)", "experiment": "Test A postemergence application, visual injury rating 0-100", "description": "as §2, §3"}, "[6]": {"tested_on": "ragweed (common ragweed, Ambrosia artemisiifolia)", "experiment": "Test A postemergence application, visual injury rating 0-100", "description": "as §2, §3"}, "[7]": {"tested_on": "blackgrass (Alopecurus myosuroides)", "experiment": "Test A postemergence application, visual injury rating 0-100", "description": "as §2, §3"}, "[8]": {"tested_on": "palmer (palmer amaranth, palmer pigweed, Amaranthus palmeri)", "experiment": "Test A postemergence application, visual injury rating 0-100", "description": "as §2, §3"}, "corn (Zea mays) [9]": {"tested_on": "corn (Zea mays)", "experiment": "Test A postemergence application, visual injury rating 0-100", "description": "as §2, §3"}, "soybean (Glycine max) [10]": {"tested_on": "soybean (Glycine max)", "experiment": "Test A postemergence application, visual injury rating 0-100", "description": "as §2, §3"}, "[11]": {"tested_on": "ryegrass, Italian (italian ryegrass, Lolium multiflorum)", "experiment": "Test A postemergence application, visual injury rating 0-100", "description": "as §2, §3"}, "[12]": {"tested_on": "wheat (Triticum aestivum)", "experiment": "Test A postemergence application, visual injury rating 0-100", "description": "as §2, §3"}, "kochia (Bassia scoparia) [13]": {"tested_on": "kochia (Bassia scoparia)", "experiment": "Test A postemergence application, visual injury rating 0-100", "description": "as §2, §3"}, "[14]": {"tested_on": "barnyardgrass (Echinochloa crus-galli)", "experiment": "Test A postemergence application, visual injury rating 0-100", "description": "as §2, §3"}, "[15]": {"tested_on": "green foxtail (Setaria viridis)", "experiment": "Test A postemergence application, visual injury rating 0-100", "description": "as §2, §3"}, "[16]": {"tested_on": "oat, wild (wild oat, Avena fatua)", "experiment": "Test A preemergence soil spray, visual injury rating 0-100", "conditions": "10 days", "summary_of_the_method": "(§4)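 Compounds formulated in a non-phytotoxic solvent with surfactant are sprayed onto soil of freshly planted loam-sand pots ahead of emergence, or onto emerged plants 2-10 cm tall. After a 10-day greenhouse period, each species is scored visually for injury against untreated controls.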"}, "[17]": {"tested_on": "ragweed (common ragweed, Ambrosia artemisiifolia)", "experiment": "Test A preemergence soil spray, visual injury rating 0-100", "conditions": "10 days", "summary_of_the_method": "as §4"}, "[18]": {"tested_on": "blackgrass (Alopecurus myosuroides)", "experiment": "Test A preemergence soil spray, visual injury rating 0-100", "conditions": "10 days", "summary_of_the_method": "as §4"}, "[19]": {"tested_on": "palmer (palmer amaranth, palmer pigweed, Amaranthus palmeri)", "experiment": "Test A preemergence soil spray, visual injury rating 0-100", "conditions": "62 g ai/ha, 10 days, 0 = no effect, 100 = complete control", "summary_of_the_method": "as §4"}, "corn (Zea mays) [20]": {"tested_on": "corn (Zea mays)", "experiment": "Test A preemergence soil spray, visual injury rating 0-100", "conditions": "10 days", "summary_of_the_method": "as §4"}, "soybean (Glycine max) [21]": {"tested_on": "soybean (Glycine max)", "experiment": "Test A preemergence soil spray, visual injury rating 0-100", "conditions": "10 days", "summary_of_the_method": "as §4"}, "[22]": {"tested_on": "ryegrass, Italian (italian ryegrass, Lolium multiflorum)", "experiment": "Test A preemergence soil spray, visual injury rating 0-100", "conditions": "10 days", "summary_of_the_method": "as §4"}, "[23]": {"tested_on": "wheat (Triticum aestivum)", "experiment": "Test A preemergence soil spray, visual injury rating 0-100", "conditions": "10 days", "summary_of_the_method": "as §4"}, "kochia (Bassia scoparia) [24]": {"tested_on": "kochia (Bassia scoparia)", "experiment": "Test A preemergence soil spray, visual injury rating 0-100", "conditions": "10 days", "summary_of_the_method": "as §4"}, "[25]": {"tested_on": "barnyardgrass (Echinochloa crus-galli)", "experiment": "Test A preemergence soil spray, visual injury rating 0-100", "conditions": "10 days", "summary_of_the_method": "as §4"}, "[26]": {"tested_on": "green foxtail (Setaria viridis)", "experiment": "Test A preemergence soil spray, visual injury rating 0-100", "conditions": "10 days", "summary_of_the_method": "as §4"}, "[27]": {"conditions": "62 g ai/ha, postemergence, 10 days, 0 = no effect, 100 = complete control"}, "[28]": {"conditions": "Postemergence, 16 g ai/ha, greenhouse 10 days, 0 no effect, 100 complete control"}, "[29]": {"conditions": "62 g ai/ha, 0 = no effect, 100 = complete control"}},
  "data": [
    {"molecule": "CC(C)OC(=O)C1=CCC(NC(=O)C2(C)CN(c3cc(Cl)cc(Cl)c3)C(=O)O2)C1", "note": "(stereo not drawn) [Compound 105]", "values": [
      {"measurement": "Plant response rating, Ducksalad (0 to 100 scale, 0 is no effect and 100 is complete control)", "setting": "[1]", "value": 0},
      {"measurement": "Plant response rating, Sedge, Umbrella (0 to 100 scale, 0 is no effect and 100 is complete control)", "setting": "[2]", "value": 0},
      {"measurement": "Plant response rating, Rice (0 to 100 scale, 0 is no effect and 100 is complete control)", "setting": "rice (Oryza sativa)", "value": 0},
      {"measurement": "Plant response rating, Barnyardgrass (0 to 100 scale, 0 is no effect and 100 is complete control)", "setting": "[3]", "value": 0},
      {"measurement": "Horseweed plant response rating (0-100)", "setting": "[4]", "value": 20},
      {"measurement": "Oat, Wild plant response rating (0-100)", "setting": "[5]; [27]", "value": 0},
      {"measurement": "Oat, Wild plant response rating (0 to 100 scale)", "setting": "[5]; [28]", "value": 0},
      {"measurement": "Ragweed plant response rating (0-100)", "setting": "[6]; [27]", "value": 0},
      {"measurement": "Ragweed plant response rating (0 to 100 scale)", "setting": "[6]; [28]", "value": 0},
      {"measurement": "Blackgrass plant response rating (0-100)", "setting": "[7]; [27]", "value": 10},
      {"measurement": "Blackgrass plant response rating (0 to 100 scale)", "setting": "[7]; [28]", "value": 0},
      {"measurement": "Pigweed, Palmer plant response rating (0-100)", "setting": "[8]; [27]", "value": 10},
      {"measurement": "Pigweed, Palmer plant response rating (0 to 100 scale)", "setting": "[8]; [28]", "value": 0},
      {"measurement": "Corn plant response rating (0-100)", "setting": "corn (Zea mays) [9]; [27]", "value": 10},
      {"measurement": "Corn plant response rating (0 to 100 scale)", "setting": "corn (Zea mays) [9]; [28]", "value": 0},
      {"measurement": "Soybean plant response rating (0-100)", "setting": "soybean (Glycine max) [10]; [27]", "value": 0},
      {"measurement": "Soybean plant response rating (0 to 100 scale)", "setting": "soybean (Glycine max) [10]; [28]", "value": 0},
      {"measurement": "Ryegrass, Italian plant response rating (0-100)", "setting": "[11]; [27]", "value": 0},
      {"measurement": "Ryegrass, Italian plant response rating (0 to 100 scale)", "setting": "[11]; [28]", "value": 0},
      {"measurement": "Wheat plant response rating (0-100)", "setting": "[12]; [27]", "value": 0},
      {"measurement": "Wheat plant response rating (0 to 100 scale)", "setting": "[12]; [28]", "value": 0},
      {"measurement": "Kochia plant response rating (0-100)", "setting": "kochia (Bassia scoparia) [13]; [27]", "value": 0},
      {"measurement": "Kochia plant response rating (0 to 100 scale)", "setting": "kochia (Bassia scoparia) [13]; [28]", "value": 0},
      {"measurement": "Barnyardgrass plant response rating (0-100)", "setting": "[14]; [27]", "value": 30},
      {"measurement": "Barnyardgrass plant response rating (0 to 100 scale)", "setting": "[14]; [28]", "value": 0},
      {"measurement": "Foxtail, Green plant response rating (0-100)", "setting": "[15]; [27]", "value": 0},
      {"measurement": "Foxtail, Green plant response rating (0 to 100 scale)", "setting": "[15]; [28]", "value": 0},
      {"measurement": "Oat, Wild plant response rating", "setting": "[16]; 16 g ai/ha, 0 to 100 scale", "value": 0},
      {"measurement": "Oat, Wild plant response rating (0-100)", "setting": "[16]; [29]", "value": 0},
      {"measurement": "Ragweed plant response rating", "setting": "[17]; 16 g ai/ha, 0 to 100 scale", "value": 0},
      {"measurement": "Ragweed plant response rating (0-100)", "setting": "[17]; [29]", "value": 0},
      {"measurement": "Blackgrass plant response rating", "setting": "[18]; 16 g ai/ha, 0 to 100 scale", "value": 0},
      {"measurement": "Blackgrass plant response rating (0-100)", "setting": "[18]; [29]", "value": 0},
      {"measurement": "Pigweed, Palmer plant response rating (0-100)", "setting": "[19]", "value": 10},
      {"measurement": "Corn plant response rating", "setting": "corn (Zea mays) [20]; 16 g ai/ha, 0 to 100 scale", "value": 0},
      {"measurement": "Corn plant response rating (0-100)", "setting": "corn (Zea mays) [20]; [29]", "value": 0},
      {"measurement": "Soybean plant response rating", "setting": "soybean (Glycine max) [21]; 16 g ai/ha, 0 to 100 scale", "value": 0},
      {"measurement": "Soybean plant response rating (0-100)", "setting": "soybean (Glycine max) [21]; [29]", "value": 0},
      {"measurement": "Ryegrass, Italian plant response rating", "setting": "[22]; 16 g ai/ha, 0 to 100 scale", "value": 0},
      {"measurement": "Ryegrass, Italian plant response rating (0-100)", "setting": "[22]; [29]", "value": 0},
      {"measurement": "Wheat plant response rating", "setting": "[23]; 16 g ai/ha, 0 to 100 scale", "value": 0},
      {"measurement": "Wheat plant response rating (0-100)", "setting": "[23]; [29]", "value": 0},
      {"measurement": "Kochia plant response rating", "setting": "kochia (Bassia scoparia) [24]; 16 g ai/ha, 0 to 100 scale", "value": 0},
      {"measurement": "Kochia plant response rating (0-100)", "setting": "kochia (Bassia scoparia) [24]; [29]", "value": 0},
      {"measurement": "Barnyardgrass plant response rating", "setting": "[25]; 16 g ai/ha, 0 to 100 scale", "value": 0},
      {"measurement": "Barnyardgrass plant response rating (0-100)", "setting": "[25]; [29]", "value": 0},
      {"measurement": "Foxtail, Green plant response rating", "setting": "[26]; 16 g ai/ha, 0 to 100 scale", "value": 0},
      {"measurement": "Foxtail, Green plant response rating (0-100)", "setting": "[26]; [29]", "value": 0}
    ]}
  ]
}
